Assay [1] deals with T1, Rat Steroid C17,20-lyase (Rattus norvegicus, UniProt P11715).
T1 construct: Testes excised from 13-week old, male SD rats were homogenized, and testicular microsomes were prepared; from tissue; host or cells: testicular microsomes of 13-week old male SD rats
T1 sequence (P11715 1-507): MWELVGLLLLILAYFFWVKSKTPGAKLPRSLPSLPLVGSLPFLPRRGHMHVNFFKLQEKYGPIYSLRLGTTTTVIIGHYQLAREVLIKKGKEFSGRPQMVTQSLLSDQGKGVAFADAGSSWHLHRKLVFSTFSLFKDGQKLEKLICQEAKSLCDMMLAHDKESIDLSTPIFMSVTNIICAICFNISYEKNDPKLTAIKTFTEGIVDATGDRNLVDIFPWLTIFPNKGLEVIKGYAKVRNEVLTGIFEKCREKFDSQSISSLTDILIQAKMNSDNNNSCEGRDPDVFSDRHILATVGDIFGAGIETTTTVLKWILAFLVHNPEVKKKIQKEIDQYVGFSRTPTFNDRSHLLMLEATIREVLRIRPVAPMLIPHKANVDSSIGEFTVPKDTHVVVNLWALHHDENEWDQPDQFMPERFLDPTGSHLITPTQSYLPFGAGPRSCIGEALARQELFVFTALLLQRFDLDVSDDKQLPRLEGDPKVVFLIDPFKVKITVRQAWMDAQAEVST
Nature of the assay: Inhibitory activity on a rat steroid C17,20-lyase in vitro. The format is biochemical. The following applies: rat testicular microsomes, 10 nM [1,2-3H]-17-α-hydroxyprogesterone, NADPH, 7 min at 37° C., products testosterone and androstenedione. As to the method: Assay of Inhibitory Activity on a Rat Steroid C17,20-lyase in Vitro
Inhibitory activity was determined according to the method described in The Prostate, vol. 26, 140-150(1995) with some modifications.
Testes excised from 13-week old, male SD rats were homogenized, and testicular microsomes were prepared by a series of centrifugation. The microsome protein (7 μg/10 μl) was added to 101 μl of 100 mM phosphate buffer (pH 7.4) in which 10 nM (final concentration) [1,2-3H]-17-α-hydroxyprogesterone, NADPH, and test compounds were dissolved. The reaction mixture was incubated for 7 min at 37° C., terminated by addition of 40 μl of ethyl acetate, and briefly centrifuged. The substrate and the products (testosterone and androstenedione) in the upper phase were separated by silica gel thin layer chromatography. Detection of the spots and measurement of the radioactivity were performed by a BAS 2000 Bioimage analyzer. The concentration of the test compounds necessary to reduce the concentration of the products by 50% (The concentration in the control group in which no test compound was added was taken as 100%) was calculated, and shown in Table 1.

Assay [2] has as its system testosterone biosynthesis. Nature of the assay: Inhibitory activity on testosterone biosynthesis in rats. The settings on record: male SD rats, oral, 50 mg/kg, serum testosterone 2 h later by radioimmunoassay, percentage of control group. The format is in vivo, rat. Here is the method: Assay of Inhibitory Activity on Testosterone Biosynthesis in Rats
Test compounds were orally administered to 9-week old, male SD (Sprague-Dawley rats at a dose of 50 mg/kg. Two-h later blood was taken and testosterone concentration in serum was measured by radioimmunoassay. The percentage of the testosterone concentration of the groups of rats, which received test compounds, to that of the control group was calculated, and regarded as the inhibitory activity.

Counter-ions that a name gives are not always drawn.

Turning to `CC(C)C(O)(c1ccc2cc(-c3cnco3)ccc2c1)c1c[nH]cn1` (stereo not drawn) [Example 7, 1-(1H-Imidazol-4-yl)-2-methyl-1-(6-(1,3-oxazol-5-yl)-2-naphthyl)-1-propanol], in assay [1], the IC50 (usually the midpoint of a concentration-inhibition curve) worked out at 0.014 µM.

In assay [1], `CNC(=O)c1ccc2cc(C(O)(c3c[nH]cn3)C(C)C)ccc2c1` (stereo not drawn) [Example 9, 6-(1-Hydroxy-1-(1H-imidazol-4-yl)-2-methyl-propyl)-N-methyl-2-naphthamide] displayed an IC50 of 0.0061 µM. Also, the “Inhibitory activity on testosterone bioxynthesis (T/C, %)” value (“Inhibitory activity … (T/C, %)” for short) in assay [2] is 4.5%. As to `COc1cc2ccc([C@](O)(c3c[nH]cn3)C(C)C)cc2cc1OC` [Example 22, (S)-(−)-1-(6,7-Dimethoxy-2-naphthyl)-1-(1H-imidazol-4-yl)-2-methyl-1-propanol.fumaric Acid Salt], the midpoint of inhibition in assay [1], the IC50, lay at 0.0033 µM. In other words, the single-digit nanomolar range. In turn, `CC(C)C(O)(c1ccc2cc(-c3ccco3)ccc2c1)c1c[nH]cn1` (stereo not drawn) [Example 2, 1-(6-(2-Furyl)-2-naphthyl)-1-(1H-imidazol-4-yl)-2-methyl-1-propanol] gave an IC50 in assay [1] of 0.028 µM. For the compound `CCC(O)(c1ccc2c3c(ccc2c1)OCC3)c1c[nH]cn1` (stereo not drawn) [Example 18, 1-(1,2-Dihydronaphtho[2,1-b]furan-7-yl)-1-(1H-imidazol-4-yl)-1-propanol], the IC50 in assay [1] came to 0.018 µM. For the same compound, in assay [2], the “Inhibitory activity … (T/C, %)” value stood at 7.4%.

Compound `CC(C)C(O)(c1ccc2cc(-c3cn[nH]c3)ccc2c1)c1c[nH]cn1` (stereo not drawn) [Example 6, 1-(1H-Imidazol-4-yl)-2-methyl-1-(6-(1H-pyrazol-4-yl)-2-naphthyl)-1-propanol] showed an IC50 in assay [1] of 0.015 µM. The “Inhibitory activity … (T/C, %)” value in assay [2] was determined as 10%.
